Consider 29 molecules from patent publication US12459899B2, “Isoquinolinone derivatives, method for preparing the same, and pharmaceutical composition for preventing or treating poly(ADP-ribose) polymerase-1-related diseases, comprising the same as active ingredient” (DIGMBIO. INC., priority 2019, dated 2025).

Molecules are shown by their SMILES. Read-outs that look alike come from different tables or passages of the source.

This assay addresses PARP-1 (poly[ADP-ribose] polymerase 1) enzyme (Homo sapiens (Human), UniProt P09874). The assay is described as follows: PARP-1 (poly[ADP-ribose] polymerase 1) enzyme inhibitory ability, Trevigen assay kit. In kind it is biochemical. The conditions noted are these: for IC50: PARP-1 enzyme activity. The method, then:
In order to evaluate the PARP-1 (poly[ADP-ribose] polymerase 1) enzyme inhibitory ability of the compounds according to the present invention, an experiment was conducted as follows.
Specifically, in order to evaluate the PARP-1 (poly[ADP-ribose] polymerase 1) enzyme inhibitory ability of the compounds of Examples 1 to 276 according to the present invention, the PARP-1 (poly[ADP-ribose] polymerase 1) activity was investigated in the following manner using an assay kit purchased from Trevigen, Inc. (Catalog number: 4677-096-K). 50 μL of 1×PARP buffer (provided by Trevigen's kit) was dispensed into a 96-well plate coated with histones per each well, and then rehydrated for 30 minutes. After removing the 1×PARP buffer present in the well, PARP-1 (poly[ADP-ribose] polymerase 1) enzyme (0.5 unit/well) and 1 μM concentration or various concentrations of the compounds of Example 1 to 276 were added at room temperature and reacted for 10 minutes. Thereafter, each well was treated with 25 μL of 1×PARP cocktail (biotinylated NAD, activated DNA, provided by Trevigen's kit), and then reacted at room temperature for 1 hour. After the reaction was completed, each well was washed twice with PBS (7.5 mM Na2HPO4, 2.5 mM NaH2PO4, 145 mM NaCl) containing 0.1% triton X-100, and washed twice with PBS. Then, 50 μL of strep-HRP (streptavidin-linked peroxidase) was added and reacted at room temperature for 1 hour, and then washed twice with PBS containing 0.1% triton X-100, and washed twice with PBS. After removing all PBS, 50 μL of TACS-sapphire, a substrate, was added, and reacted at room temperature for 15 minutes while blocking the light. After the reaction was terminated by treatment with 50 μL of 5% phosphoric acid to each well, the absorbance was measured at 450 nm using a microplate reader Victor3 from PerkinElmer, Inc. to quantify the value.

The mark [1] stands for this setting: 1 nM compound, read-out: PAR P-1 Inhibitory ability at 1 nM.

Chain of PARP-1 (poly[ADP-ribose] polymerase 1) enzyme (P09874 whole entry): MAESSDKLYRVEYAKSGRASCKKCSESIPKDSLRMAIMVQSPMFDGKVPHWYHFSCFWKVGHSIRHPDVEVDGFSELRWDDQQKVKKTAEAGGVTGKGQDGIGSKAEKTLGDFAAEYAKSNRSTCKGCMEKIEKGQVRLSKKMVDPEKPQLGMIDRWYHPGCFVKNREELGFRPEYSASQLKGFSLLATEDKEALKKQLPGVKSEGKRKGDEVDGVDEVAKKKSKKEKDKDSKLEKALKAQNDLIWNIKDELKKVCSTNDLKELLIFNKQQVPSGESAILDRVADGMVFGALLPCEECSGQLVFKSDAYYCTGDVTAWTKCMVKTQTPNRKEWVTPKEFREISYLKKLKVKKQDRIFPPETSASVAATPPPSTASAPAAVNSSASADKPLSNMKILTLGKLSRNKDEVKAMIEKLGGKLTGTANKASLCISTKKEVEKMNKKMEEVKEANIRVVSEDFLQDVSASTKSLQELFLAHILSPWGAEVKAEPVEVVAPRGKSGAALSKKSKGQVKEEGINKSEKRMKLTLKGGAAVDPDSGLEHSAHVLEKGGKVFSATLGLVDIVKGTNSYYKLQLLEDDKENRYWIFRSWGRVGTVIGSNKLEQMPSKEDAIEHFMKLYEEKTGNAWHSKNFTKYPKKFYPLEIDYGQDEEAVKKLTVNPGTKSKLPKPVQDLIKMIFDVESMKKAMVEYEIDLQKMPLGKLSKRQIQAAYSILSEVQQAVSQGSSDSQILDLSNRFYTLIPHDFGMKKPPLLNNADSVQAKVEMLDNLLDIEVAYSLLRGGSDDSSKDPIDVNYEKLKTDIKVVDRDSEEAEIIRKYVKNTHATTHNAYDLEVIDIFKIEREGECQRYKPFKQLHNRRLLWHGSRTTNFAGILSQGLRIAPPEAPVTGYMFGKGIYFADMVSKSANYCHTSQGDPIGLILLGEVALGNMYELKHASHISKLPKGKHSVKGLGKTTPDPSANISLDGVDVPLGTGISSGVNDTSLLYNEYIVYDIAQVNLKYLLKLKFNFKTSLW

Consider `Cc1ccc(F)c2c(=O)[nH]c(CCCN3CCN(c4nccs4)CC3)cc12` [Example 29, 8-fluoro-5-methyl-3-(3-(4-(thiazole-2-yl)piperazin-1-yl)propyl)isoquinolin-1(2H)-one], for which the inhibition at 0.001 µM under setting [1] is less than 50%.
Same read-out and setting: under `Cc1cnc(N2CCN(CCCc3cc4c(C)ccc(F)c4c(=O)[nH]3)CC2)s1` [Example 30, 8-fluoro-5-methyl-3-(3-(4-(5-methylthiazole-2-yl)piperazin-1-yl)propyl)isoquinolin-1(2H)-one] stands less than 50%; under `Cc1ccc(F)c2c(=O)[nH]c(CCCN3CC[C@H](c4ccc(F)cc4)C3)cc12` [Example 31, (R)-8-fluoro-3-(3-(3-(4-fluorophenyl)pyrrolidin-1-yl)propyl)-5-methylisoquinolin-1(2H)-one], less than 50%; under `Cc1ccc(F)c2c(=O)[nH]c(CCCN3CC[C@@H](c4ccc(F)cc4)C3)cc12` [Example 32, (S)-8-fluoro-3-(3-(3-(4-fluorophenyl)pyrrolidin-1-yl)propyl)-5-methylisoquinolin-1(2H)-one], less than 50%.
The same measure, in the same setting: next, `Cc1ccc(F)c2c(=O)[nH]c(CCCN3CCN(c4ccc(Cl)cc4)CC3)cc12` [Example 33, 3-(3-(4-(4-chlorophenyl)piperazin-1-yl)propyl)-8-fluoro-5-methylisoquinolin-1(2H)-one]: less than 50%.
On the same count and under the same terms, under `Cc1cc(F)cc2c(=O)[nH]c(CCCN3CCN(c4ccc(C#N)cc4)CC3)cc12` [Example 34, 4-(4-(3-(7-fluoro-5-methyl-1-oxo-1,2-dihydroisoquinolin-3-yl)propyl)piperazin-1-yl)benzonitrile] stands less than 50%; under `Cc1cc(F)cc2c(=O)[nH]c(CCCN3CCN(c4ccc(C#N)nc4)CC3)cc12` [Example 35, 5-(4-(3-(7-fluoro-5-methyl-1-oxo-1,2-dihydroisoquinolin-3-yl)propyl)piperazin-1-yl)picolinonitrile], less than 50%.
In the case of `Cc1cc(F)cc2c(=O)[nH]c(CCCN3CCN(c4ccc(C#N)cn4)CC3)cc12` [Example 36, 6-(4-(3-(7-fluoro-5-methyl-1-oxo-1,2-dihydroisoquinolin-3-yl)propyl)piperazin-1-yl)nicotinonitrile], under setting [1], the inhibition at 0.001 µM was 50 to 80%.
As for `Cc1cc(F)cc2c(=O)[nH]c(CCCN3CCN(c4ccc(C#N)cc4F)CC3)cc12` [Example 37, 3-fluoro-4-(4-(3-(7-fluoro-5-methyl-1-oxo-1,2-dihydroisoquinolin-3-yl)propyl)piperazin-1-yl)benzonitrile], the inhibition at 0.001 µM under setting [1] is less than 50%.
Same read-out and setting: under `Cc1cc(F)cc2c(=O)[nH]c(CCCN3CCN(c4ccc(C#N)c(F)c4)CC3)cc12` [Example 38, 2-fluoro-4-(4-(3-(7-fluoro-5-methyl-1-oxo-1,2-dihydroisoquinolin-3-yl)propyl)piperazin-1-yl)benzonitrile] stands less than 50%; under `Cc1cc(F)cc2c(=O)[nH]c(CCCN3CCN(c4ccc(C(F)(F)F)cc4)CC3)cc12` [Example 39, 7-fluoro-5-methyl-3-(3-(4-(4-(trifluoromethyl)phenyl)piperazin-1-yl)propyl)isoquinolin-1(2H)-one], less than 50%; under `Cc1cc(F)cc2c(=O)[nH]c(CCCN3CCN(c4ccc(F)cc4)CC3)cc12` [Example 40, 7-fluoro-3-(3-(4-(4-fluorophenyl)piperazin-1-yl)propyl)-5-methylisoquinolin-1(2H)-one], 50 to 80%.
Still for that read-out and setting: under `N#Cc1ccc(C2=CCN(CCCc3cc4cccc(F)c4c(=O)[nH]3)CC2)cc1` [Example 41, 4-(1-(3-(8-fluoro-1-oxo-1,2-dihydroisoquinolin-3-yl)propyl)-1,2,3,6-tetrahydropyridin-4-yl)benzonitrile] stands 50 to 80%; under `O=c1[nH]c(CCCN2CC=C(c3ccc(F)cc3)CC2)cc2cccc(F)c12` [Example 42, 8-fluoro-3-(3-(4-(4-fluorophenyl)-3,6-dihydropyridin-1(2H)-yl)propyl)isoquinolin-1(2H)-one], 50 to 80%; under `O=c1[nH]c(CCCN2CC=C(c3ccc(F)nc3)CC2)cc2cccc(F)c12` [Example 43], less than 50%.
For `O=c1[nH]c(CCCN2CC=C(c3ccc(F)cn3)CC2)cc2cccc(F)c12` [Example 44, 8-fluoro-3-(3-(5-fluoro-3′,6′-dihydro-[2,4′-bipyridine]-1′(2′H)-yl)propyl)isoquinolin-1(2H)-one], the inhibition at 0.001 µM under setting [1] was less than 50%.
Same read-out and setting: under `O=c1[nH]c(CCCN2CC=C(c3ccc(C(F)(F)F)cc3)CC2)cc2cccc(F)c12` [Example 45, 8-fluoro-3-(3-(4-(4-(trifluoromethyl)phenyl)-3,6-dihydropyridin-1(2H)-yl)propyl)isoquinolin-1(2H)-one] stands 50 to 80%.
With `N#Cc1ccc(C2=CCN(CCCc3cc4ccc(F)cc4c(=O)[nH]3)CC2)cc1` [Example 47, 4-(1-(3-(7-fluoro-1-oxo-1,2-dihydroisoquinolin-3-yl)propyl)-1,2,3,6-tetrahydropyridin-4-yl)benzonitrile], the inhibition at 0.001 µM (1 nM (Table 2), read-out: inhibited PARP-1 enzyme activity) is no less than 80% and the inhibition at 0.001 µM under setting [1] is greater than 80%.
What is called IC50 is the concentration at which inhibition is half-maximal. Turning to `O=c1[nH]c(CCCN2CC=C(c3ccc(F)cc3)CC2)cc2ccc(F)cc12` [Example 48, 7-fluoro-3-(3-(4-(4-fluorophenyl)-3,6-dihydropyridin-1(2H)-yl)propyl)isoquinolin-1(2H)-one], the IC50 is 1.32 nM. Moreover, under setting [1], the inhibition at 0.001 µM was less than 50%.
`O=c1[nH]c(CCCN2CC=C(c3ccc(Cl)cc3)CC2)cc2ccc(F)cc12` [Example 49, 3-(3-(4-(4-chlorophenyl)-3,6-dihydropyridin-1(2H)-yl)propyl)-7-fluoroisoquinolin-1(2H)-one] registered an IC50 of 3.58 nM. Further, under setting [1], the inhibition at 0.001 µM was less than 50%.
For `N#Cc1ccc(C2=CCN(CCCc3cc4ccc(F)cc4c(=O)[nH]3)CC2)nc1` [Example 50, 1′-(3-(7-fluoro-1-oxo-1,2-dihydroisoquinolin-3-yl)propyl)-1′,2′,3′,6′-tetrahydro-[2,4′-bipyridine]-5-carbonitrile], in that order: 1.88 nM and less than 50%.
Turning to `N#Cc1ccc(C2=CCN(CCCc3cc4ccc(F)cc4c(=O)[nH]3)CC2)cc1F` [Example 52, 2-fluoro-4-(1-(3-(7-fluoro-1-oxo-1,2-dihydroisoquinolin-3-yl)propyl)-1,2,3,6-tetrahydropyridin-4-yl)benzonitrile], under setting [1], the inhibition at 0.001 µM was less than 50%.
`Cc1ccc(F)c2c(=O)[nH]c(CCCN3CC=C(c4ccc(F)cc4)CC3)cc12` [Example 53, 8-fluoro-3-(3-(4-(4-fluorophenyl)-3,6-dihydropyridin-1(2H)-yl)propyl)-5-methylisoquinolin-1(2H)-one]: under setting [1], the inhibition at 0.001 µM is less than 50%.
For `Cc1ccc(F)c2c(=O)[nH]c(CCCN3CC=C(c4ccc(C#N)cc4)CC3)cc12` [Example 54, 4-(1-(3-(8-fluoro-5-methyl-1-oxo-1,2-dihydroisoquinolin-3-yl)propyl)-1,2,3,6-tetrahydropyridin-4-yl)benzonitrile], half-maximal inhibition (IC50) was put at 1.42 nM. The inhibition at 0.001 µM under setting [1] was less than 50%.
Molecule `Cc1ccc(F)c2c(=O)[nH]c(CCCN3CC=C(c4ccc(C#N)c(F)c4)CC3)cc12` [Example 55, 2-fluoro-4-(1-(3-(8-fluoro-5-methyl-1-oxo-1,2-dihydroisoquinolin-3-yl)propyl)-1,2,3,6-tetrahydropyridin-4-yl)benzonitrile] registered a 50% inhibitory concentration (IC50) of 1.77 nM. Moreover, the inhibition at 0.001 µM under setting [1] was 50 to 80%.
As for `Cc1ccc(F)c2c(=O)[nH]c(CCCN3CC=C(c4ccc([N+](=O)[O-])cc4F)CC3)cc12` [Example 56, 8-fluoro-3-(3-(4-(2-fluoro-4-nitrophenyl)-3,6-dihydropyridin-1(2H)-yl)propyl)-5-methylisoquinolin-1(2H)-one], the inhibition at 0.001 µM under setting [1] was less than 50%.
`Cc1ccc(F)c2c(=O)[nH]c(CCCN3CC=C(c4ccc(C#N)cn4)CC3)cc12` [Example 57, 1′-(3-(8-fluoro-5-methyl-1-oxo-1,2-dihydroisoquinolin-3-yl)propyl)-1′,2′,3′,6′-tetrahydro-[2,4′-bipyridine]-5-carbonitrile]: it took 0.91 nM to reach half-maximal inhibition (IC50). The inhibition at 0.001 µM under setting [1] was 50 to 80%.
For the molecule `Cc1cc(F)cc2c(=O)[nH]c(CCCN3CC=C(c4ccc(C#N)cc4)CC3)cc12` [Example 58, 4-(1-(3-(7-fluoro-5-methyl-1-oxo-1,2-dihydroisoquinolin-3-yl)propyl)-1,2,3,6-tetrahydropyridin-4-yl)benzonitrile], the IC50 amounted to 1.76 nM. The inhibition at 0.001 µM under setting [1] lay within 50 to 80%.
For the molecule `Cc1cc(F)cc2c(=O)[nH]c(CCCN3CC=C(c4ccc(F)cc4)CC3)cc12` [Example 59, 7-fluoro-3-(3-(4-(4-fluorophenyl)-3,6-dihydropyridin-1(2H)-yl)propyl)-5-methylisoquinolin-1(2H)-one], under setting [1], the inhibition at 0.001 µM is less than 50%.
